The source of these data is ChEMBL document CHEMBL4219086, “Development of benzoxazole deoxybenzoin oxime and acyloxylamine derivatives targeting innate immune sensors and xanthine oxidase for treatment of gout” (Bioorg Med Chem, 2018).

Active and inactive are the calls of the source. The rule behind the calls is not given here.

Usually inhibition stands for the share of the control response that was lost under treatment.

In experiment [1] the test system is Mus musculus. Kind of experiment: Anti-hyperuricemic effect in Kunming mouse assessed as inhibition of potassium oxonate-induced serum uric acid level administered po 1 hr post potassium oxonate addition measured after 1 hr by phosphotungstic acid method. The format is functional, organism-based.
For experiment [2], the system named is Mus musculus. Put plainly: Hypouricemic effect in Kunming mouse assessed as inhibition of hepatic XOD activity at 5 mg/kg, po measured after 1 hr relative to control. In kind it is organism-based.
For experiment [3], the system named is Rattus norvegicus. Put plainly: Antiarthritic activity in MSU-induced acute gouty arthritis Sprague-Dawley rat model assessed as reduction in ankle swelling by measuring perimeter of ankle at 2.5 mg/kg, po qd pretreated via gavage for 5 days followed by MSU treatment at 1 hr post last dose measured immediately (reference value: 2.64 +/- 0.81 cm). In kind it is functional.

Experiment [4] concerns Rattus norvegicus. Kind of experiment: Antiarthritic activity in MSU-induced acute gouty arthritis Sprague-Dawley rat model assessed as reduction in ankle swelling by measuring perimeter of ankle at 2.5 mg/kg, po qd pretreated via gavage for 5 days followed by MSU treatment at 1 hr post last dose measured after 2 hrs (reference value: 2.82 +/- 0.75 cm). In kind it is functional.

Experiment [5] deals with Rattus norvegicus. Put plainly: Antiarthritic activity in MSU-induced acute gouty arthritis Sprague-Dawley rat model assessed as reduction in ankle swelling by measuring perimeter of ankle at 5 mg/kg, po qd pretreated via gavage for 5 days followed by MSU treatment at 1 hr post last dose measured after 2 hrs (reference value: 2.82 +/- 0.75 cm). The format is functional.

Experiment [6] concerns Rattus norvegicus. Kind of experiment: Antiarthritic activity in MSU-induced acute gouty arthritis Sprague-Dawley rat model assessed as reduction in ankle swelling by measuring perimeter of ankle at 10 mg/kg, po qd pretreated via gavage for 5 days followed by MSU treatment at 1 hr post last dose measured after 2 hrs (reference value: 2.82 +/- 0.75 cm). The format is functional.

Experiment [7] relates to Rattus norvegicus. Kind of experiment: Antiarthritic activity in MSU-induced acute gouty arthritis Sprague-Dawley rat model assessed as reduction in ankle swelling by measuring perimeter of ankle at 5 mg/kg, po qd pretreated via gavage for 5 days followed by MSU treatment at 1 hr post last dose measured after 4 hrs (reference value: 3.18 +/- 0.64 cm). In kind it is functional.

Experiment [8] deals with Rattus norvegicus. Kind of experiment: Antiarthritic activity in MSU-induced acute gouty arthritis Sprague-Dawley rat model assessed as reduction in ankle swelling by measuring perimeter of ankle at 5 mg/kg, po qd pretreated via gavage for 5 days followed by MSU treatment at 1 hr post last dose measured after 8 hrs (reference value: 3.27 +/- 0.56 cm). The format is functional.

The subject of experiment [9] is Rattus norvegicus. Kind of experiment: Antiarthritic activity in MSU-induced acute gouty arthritis Sprague-Dawley rat model assessed as reduction in ankle swelling by measuring perimeter of ankle at 2.5 mg/kg, po qd pretreated via gavage for 5 days followed by MSU treatment at 1 hr post last dose measured after 12 hrs (reference value: 3.51 +/- 0.52 cm). In kind it is functional.

The test system of experiment [10] is Rattus norvegicus. Put plainly: Antiarthritic activity in MSU-induced acute gouty arthritis Sprague-Dawley rat model assessed as reduction in ankle swelling by measuring perimeter of ankle at 5 mg/kg, po qd pretreated via gavage for 5 days followed by MSU treatment at 1 hr post last dose measured after 12 hrs (reference value: 3.51 +/- 0.52 cm). The format is functional.

Experiment [11] relates to Rattus norvegicus. Put plainly: Antiarthritic activity in MSU-induced acute gouty arthritis Sprague-Dawley rat model assessed as reduction in ankle swelling by measuring perimeter of ankle at 10 mg/kg, po qd pretreated via gavage for 5 days followed by MSU treatment at 1 hr post last dose measured after 12 hrs (reference value: 3.51 +/- 0.52 cm). The format is functional.

In experiment [12] the test system is Rattus norvegicus. Kind of experiment: Antiarthritic activity in MSU-induced acute gouty arthritis Sprague-Dawley rat model assessed as reduction in ankle swelling by measuring perimeter of ankle at 10 mg/kg, po qd pretreated via gavage for 5 days followed by MSU treatment at 1 hr post last dose measured after 24 hrs (reference value: 3.35 +/- 0.5 cm). The format is functional.

Experiment [13] deals with Rattus norvegicus. Kind of experiment: Inhibition of MSU-induced TNFalpha level in synovial homogenate of acute gouty arthritis Sprague-Dawley rat model at 2.5 to 10 mg/kg, po qd pretreated via gavage for 5 days followed by MSU treatment at 1 hr post last dose measured up to 24 hrs by ELISA. In kind it is functional, organism-based.
Experiment [14] concerns Rattus norvegicus. Kind of experiment: Inhibition of MSU-induced TLR4 protein level in synovial homogenate of acute gouty arthritis Sprague-Dawley rat model at 2.5 to 10 mg/kg, po qd pretreated via gavage for 5 days followed by MSU treatment at 1 hr post last dose measured up to 24 hrs by Western blot method. In kind it is functional, organism-based. A general note: In western blotting, separated proteins are transferred to a membrane and probed.

Experiment [15] has as its system Rattus norvegicus. Kind of experiment: Inhibition of MSU-induced MyD88 protein level in synovial homogenate of acute gouty arthritis Sprague-Dawley rat model at 2.5 to 10 mg/kg, po qd pretreated via gavage for 5 days followed by MSU treatment at 1 hr post last dose measured up to 24 hrs by Western blot method. The format is functional, organism-based.
Experiment [16] has as its system Rattus norvegicus. Kind of experiment: Inhibition of MSU-induced p65 NFkappaB protein level in synovial homogenate of acute gouty arthritis Sprague-Dawley rat model at 2.5 to 10 mg/kg, po qd pretreated via gavage for 5 days followed by MSU treatment at 1 hr post last dose measured up to 24 hrs by Western blot method. In kind it is functional, organism-based.

Regarding `COc1ccc(C/C(=N\O)c2nc3ccc(OC)cc3o2)cc1`, the inhibition entry in the experiment on Mus musculus [1] is “Dose-dependent effect”. For the same compound, the inhibition at 5 mg/kg in the experiment on Mus musculus [2] is 6.8%. The Activity in the experiment on Rattus norvegicus [3] amounted to 2.65 cm; with Rattus norvegicus [4] it was 2.78 cm; in the experiment on Rattus norvegicus [5] it was 2.56 cm; in the experiment on Rattus norvegicus [6], 2.69 cm; with Rattus norvegicus [7], 2.84 cm; in the experiment with Rattus norvegicus [8], 2.88 cm. The Activity in the experiment on Rattus norvegicus [9] turned out to be 3.14 cm; in the experiment with Rattus norvegicus [10], 2.99 cm; in the experiment with Rattus norvegicus [11] it was 2.7 cm; in the experiment on Rattus norvegicus [12], 2.73 cm. The inhibition entry in the experiment with Rattus norvegicus [13], in the experiment on Rattus norvegicus [14], with Rattus norvegicus [15] and in the experiment on Rattus norvegicus [16] was “Active” each time.
